Reference: PMC9218685, “Legume Plant Peptides as Sources of Novel Antimicrobial Molecules Against Human Pathogens” (Frontiers in Molecular Biosciences, 2022)
Values after ≈ are worked out from the molar mass of the structure shown. Peptide text beside a SMILES is read from it.

Assays:
Format in all cases: cell-based
[1] = test system: Acinetobacter baumannii (ATCC 17978); experiment: microbe, parasite or virus in culture; details: ATCC 17978, 3 h
In short: (§1)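 Peptides were serially diluted two-fold from 25 µM to 0.8 µM and incubated 3 h with roughly 10^7 log-phase cells in potassium-phosphate buffer at pH 7.4; complete killing of viable bacteria defined the minimal bactericidal concentration.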

[2] = test system: Escherichia coli (ATCC 8739); details: ATCC 8739, 3 h
In short: as §1

[3] = test system: Klebsiella pneumoniae (NCTC 13440); details: NCTC 13440, 3 h
In short: as §1

[4] = test system: Pseudomonas aeruginosa (ATCC 27853); details: ATCC 27853, 3 h
In short: as §1

[5] = test system: Salmonella enterica (ATCC 13076); details: ATCC 13076, 3 h
In short: as §1

[6] = test system: Staphylococcus aureus (HNCMO112011); details: HNCMO112011, 3 h
In short: as §1

[7] = test system: Listeria monocytogenes (ATCC 19111); details: ATCC 19111, 3 h
In short: as §1

[8] = test system: E. coli, S. enteritidis, P. aeruginosa, L. monocytogenes, S. aureus, E. faecalis, K. pneumoniae and A. baumannii; experiment: Antimicrobial activity assay, spectrum over the eight tested pathogenic bacteria; details: 3 h treatment of ~10^7 log phase bacteria, peptides 25 to 0.8 µM; active = MBC ≤25 µM
In short: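 MBC taken as the lowest peptide concentration leaving no viable bacteria after 3 h exposure of ~10^7 log-phase cells. Peptides tested by 2-fold serial dilution, 25 µM down to 0.8 µM, in PPB (pH 7.4). Gram-positive and Gram-negative reference strains from ATCC, NCTC and HNCMO collections.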

[9] = test system: Enterococcus faecalis (ATCC 29212)
In short: as §1

CC(C)C[C@H](NC(=O)[C@H](CS)NC(=O)[C@H](CCCCN)NC(=O)CNC(=O)[C@@H](N)Cc1ccccc1)C(=O)N[C@@H](CCCCN)C(=O)N[C@@H](CC(C)C)C(=O)N[C@@H](CCCCN)C(=O)N[C@@H](CS)C(=O)N[C@H](C(=O)N[C@@H](Cc1ccc(O)cc1)C(=O)N[C@H](C(=O)N1CCC[C@H]1C(=O)N[C@@H](CCCCN)C(=O)N[C@@H](CCCNC(=N)N)C(N)=O)[C@@H](C)O)C(C)C [GoNCR308 (16-30)] (H-FGKCLKLKCVYTPKR-NH2; N-terminus assumed)
MBC Acinetobacter baumannii [1]: 3.125 µM (≈ 5.57 µg/mL) | MBC Escherichia coli [2]: 3.125 µM (≈ 5.57 µg/mL) | MBC Klebsiella pneumoniae [3]: 25 µM (≈ 44.6 µg/mL) | MBC Pseudomonas aeruginosa [4]: 3.125 µM (≈ 5.57 µg/mL) | MBC Salmonella enterica [5]: 3.125 µM (≈ 5.57 µg/mL) | MBC Staphylococcus aureus [6]: 50 µM (≈ 89.2 µg/mL)

CC[C@H](C)[C@H](NC(=O)CNC(=O)[C@H](CCCNC(=N)N)NC(=O)[C@H](CCCCN)NC(=O)[C@H](CCCNC(=N)N)NC(=O)[C@@H](NC(=O)[C@H](CCCCN)NC(=O)[C@H](CS)NC(=O)[C@H](CC(C)C)NC(=O)CNC(=O)CNC(=O)[C@@H](NC(=O)[C@H](CS)NC(=O)[C@H](CCCNC(=N)N)NC(=O)[C@@H](N)Cc1c[nH]cn1)[C@@H](C)CC)C(C)C)C(=O)N[C@@H](CCCCN)C(=O)NCC(=O)N[C@@H](Cc1ccccc1)C(=O)N[C@H](C(=O)N[C@@H](CC(N)=O)C(=O)N[C@H](C(=O)N1CCC[C@H]1C(N)=O)[C@@H](C)CC)[C@@H](C)CC [GoNCR313 (23-44)] (H-HRCIGGLCKVRKRGIKGFINIP-NH2; N-terminus assumed)
MBC Escherichia coli [2]: 3.125 µM (≈ 7.7 µg/mL) | MBC Klebsiella pneumoniae [3]: 12.5 µM (≈ 30.8 µg/mL) | MBC Pseudomonas aeruginosa [4]: 3.125 µM (≈ 7.7 µg/mL) | MBC Salmonella enterica [5]: 6.25 µM (≈ 15.4 µg/mL)

CSCC[C@H](NC(=O)[C@H](Cc1ccccc1)NC(=O)[C@H](CCCCN)NC(=O)[C@@H]1CCCN1C(=O)[C@H](CS)NC(=O)[C@H](CCCNC(=N)N)NC(=O)CNC(=O)[C@H](CC(=O)O)NC(=O)[C@H](CCCNC(=N)N)NC(=O)CNC(=O)[C@H](CS)NC(=O)[C@H](CC(C)C)NC(=O)[C@@H](NC(=O)[C@H](CCCNC(=N)N)NC(=O)[C@@H](N)CCSC)C(C)C)C(=O)N[C@@H](CS)C(=O)N[C@@H](CCCNC(=N)N)C(=O)N[C@H](C(=O)N[C@@H](Cc1ccccc1)C(=O)N[C@@H](CC(C)C)C(=O)O)[C@@H](C)O [NCR280] (H-MRVLCGRDGRCPKFMCRTFL-OH; N-terminus assumed)
MBC Acinetobacter baumannii [1]: 1.6 µM (≈ 3.82 µg/mL) | MBC Escherichia coli [2]: 3.125 µM (≈ 7.47 µg/mL) | MBC Klebsiella pneumoniae [3]: 25 µM (≈ 59.8 µg/mL) | MBC Listeria monocytogenes [7]: 3.125 µM (≈ 7.47 µg/mL) | MBC Pseudomonas aeruginosa [4]: 12.5 µM (≈ 29.9 µg/mL) | MBC Salmonella enterica [5]: 3.125 µM (≈ 7.47 µg/mL) | Antibacterial spectrum over the eight tested bacterial strains [8]: active against all strains except S. aureus and E. faecalis

CC[C@H](C)[C@H](NC(=O)[C@H](CC(N)=O)NC(=O)[C@H](Cc1ccc(O)cc1)NC(=O)[C@H](CCCCN)NC(=O)[C@H](CCCCN)NC(=O)[C@H](Cc1ccccc1)NC(=O)[C@H](CCCCN)NC(=O)[C@@H]1CCCN1C(=O)[C@H](CS)NC(=O)[C@H](CC(=O)O)NC(=O)[C@H](CCCCN)NC(=O)[C@H](CC(=O)O)NC(=O)[C@@H](NC(=O)[C@@H](NC(=O)[C@H](CS)NC(=O)[C@H](Cc1ccc(O)cc1)NC(=O)[C@H](CCC(N)=O)NC(=O)[C@H](CCCNC(=N)N)NC(=O)[C@@H](NC(=O)[C@H](CC(C)C)NC(=O)[C@@H]1CCCN1C(=O)[C@H](CC(N)=O)NC(=O)[C@H](Cc1ccccc1)NC(=O)[C@H](CO)NC(=O)[C@@H](N)CC(=O)O)[C@@H](C)CC)C(C)C)[C@@H](C)O)C(=O)N[C@@H](CCCNC(=N)N)C(=O)N[C@@H](CS)C(=O)N[C@@H](CCCNC(=N)N)C(=O)N[C@@H](CCCCN)C(=O)NCC(=O)N[C@@H](Cc1ccccc1)C(=O)N[C@@H](CS)C(=O)N[C@H](C(=O)N[C@@H](CCC(N)=O)C(=O)N[C@H](C(=O)N[C@@H](CC(N)=O)C(=O)NCC(=O)NCC(=O)O)C(C)C)C(C)C [NCR377] (H-DSFNPLIRQYCVTDKDCPKFKKYNIRCRKGFCVQVNGG-OH; N-terminus assumed)
MBC Acinetobacter baumannii [1]: 6.25 µM (≈ 27.8 µg/mL) | MBC Escherichia coli [2]: 3.125 µM (≈ 13.9 µg/mL) | MBC Klebsiella pneumoniae [3]: 12.5 µM (≈ 55.5 µg/mL) | MBC Listeria monocytogenes [7]: 12.5 µM (≈ 55.5 µg/mL) | MBC Pseudomonas aeruginosa [4]: 3.125 µM (≈ 13.9 µg/mL) | MBC Salmonella enterica [5]: 6.25 µM (≈ 27.8 µg/mL) | MBC Staphylococcus aureus [6]: 6.25 µM (≈ 27.8 µg/mL) | Antibacterial spectrum over the eight tested bacterial strains [8]: kill all bacteria except E. faecalis

CC[C@H](C)[C@H](NC(=O)[C@H](CC(C)C)NC(=O)[C@H](CC(N)=O)NC(=O)[C@@H](NC(=O)[C@H](CS)NC(=O)[C@H](Cc1ccc(O)cc1)NC(=O)CNC(=O)[C@H](CCCCN)NC(=O)[C@H](CCCNC(=N)N)NC(=O)[C@H](CS)NC(=O)[C@H](CCCNC(=N)N)NC(=O)[C@@H](NC(=O)[C@H](CC(N)=O)NC(=O)[C@H](CCSC)NC(=O)CNC(=O)[C@H](C)NC(=O)[C@H](CCCNC(=N)N)NC(=O)[C@H](CCCNC(=N)N)NC(=O)[C@@H](NC(=O)[C@H](CS)NC(=O)[C@H](CC(=O)O)NC(=O)[C@H](CCCCN)NC(=O)[C@H](CC(=O)O)NC(=O)[C@@H](NC(=O)[C@@H](NC(=O)[C@H](CS)NC(=O)[C@@H]1CCCN1C(=O)[C@H](CC(N)=O)NC(=O)[C@@H]1CCCN1C(=O)[C@@H](NC(=O)[C@H](Cc1c[nH]cn1)NC(=O)[C@H](CO)NC(=O)[C@H](Cc1ccc(O)cc1)NC(=O)[C@@H](N)Cc1ccccc1)C(C)C)[C@@H](C)CC)[C@@H](C)O)[C@@H](C)CC)[C@@H](C)CC)C(C)C)C(=O)N[C@@H](CC(C)C)C(=O)N[C@@H](CCCNC(=N)N)C(=O)O [NCR700] (H-FYSHVPNPCITDKDCIRRAGMNIRCRKGYCVNLILR-OH; N-terminus assumed)
MBC Acinetobacter baumannii [1]: 1.6 µM (≈ 6.76 µg/mL) | MBC Escherichia coli [2]: 3.125 µM (≈ 13.2 µg/mL) | MBC Klebsiella pneumoniae [3]: 12.5 µM (≈ 52.8 µg/mL) | MBC Listeria monocytogenes [7]: 1.6 µM (≈ 6.76 µg/mL) | MBC Pseudomonas aeruginosa [4]: 6.25 µM (≈ 26.4 µg/mL) | MBC Salmonella enterica [5]: 12.5 µM (≈ 52.8 µg/mL) | Antibacterial spectrum over the eight tested bacterial strains [8]: active against all strains except S. aureus and E. faecalis

CC[C@H](C)[C@H](NC(=O)[C@H](CO)NC(=O)[C@@H](NC(=O)[C@H](CO)NC(=O)[C@@H]1CCCN1C(=O)[C@@H]1CCCN1C(=O)[C@H](CS)NC(=O)[C@H](CC(=O)O)NC(=O)[C@@H](NC(=O)[C@H](CC(=O)O)NC(=O)[C@@H](NC(=O)[C@H](CCCCN)NC(=O)[C@H](CS)NC(=O)[C@H](CCCCN)NC(=O)[C@@H](NC(=O)[C@H](C)NC(=O)[C@@H](NC(=O)[C@H](C)N)C(C)C)[C@@H](C)O)[C@@H](C)O)C(C)C)[C@@H](C)O)C(=O)N[C@@H](CCCNC(=N)N)C(=O)N[C@@H](CCCNC(=N)N)C(=O)N[C@@H](Cc1ccc(O)cc1)C(=O)N[C@@H](CCCCN)C(=O)N[C@@H](CS)C(=O)N[C@H](C(=O)N[C@@H](CCCCN)C(=O)N[C@@H](CC(N)=O)C(=O)N[C@@H](CCCCN)C(=O)N[C@@H](CS)C(=O)N[C@@H](CCCNC(=N)N)C(=O)N[C@@H](Cc1ccc(O)cc1)C(=O)N[C@H](C(=O)N[C@@H](CCCNC(=N)N)C(=O)N[C@@H](CC(C)C)C(=O)N[C@@H](CO)C(=O)N[C@@H](Cc1ccc(O)cc1)C(=O)NCC(N)=O)[C@@H](C)O)[C@@H](C)O [PsNCR351] (H-AVATKCKTDVDCPPSTSIRRYKCTKNKCRYTRLSYG-NH2; N-terminus assumed)
MBC Acinetobacter baumannii [1]: 3.125 µM (≈ 12.9 µg/mL) | Ability to kill E. faecalis ([9]; 3 h, ~10^7 log phase bacteria, peptides ≤25 µM): able to kill | MBC Enterococcus faecalis ([9]; ATCC 29212, 3 h): 12.5 µM (≈ 51.4 µg/mL) | MBC Escherichia coli [2]: 3.125 µM (≈ 12.9 µg/mL) | MBC Listeria monocytogenes [7]: 6.25 µM (≈ 25.7 µg/mL) | MBC Pseudomonas aeruginosa [4]: 3.125 µM (≈ 12.9 µg/mL) | MBC Salmonella enterica [5]: 25 µM (≈ 103 µg/mL) | MBC Staphylococcus aureus [6]: 6.25 µM (≈ 25.7 µg/mL)
